{"source": "patent US6486195B1", "about": "“Thermodynamically stable crystal form of 4″-deoxy-4″-epi-methylamino avermectin B1a/B1b benzoic acid salt and processes for its preparation” (Merck & Co., Inc., priority 1993, dated 2002)", "key": {"[1]": {"test": "hygroscopicity of the crystal forms", "format": "physicochemical", "settings": "compared with the other crystal forms (A, C, D)"}, "[2]": {"test": "thermodynamic stability of the crystalline forms", "format": "physicochemical", "settings": "among the four crystalline forms A, B, C and D"}}}
{"substance": "4″-deoxy-4″-epi-methylamino avermectin B1a/B1b, benzoic acid salt, hemihydrate [Type B]", "values": [{"measurement": "hygroscopicity", "setting": "[1]", "value": "significantly less hygroscopic"}, {"measurement": "thermodynamic stability of crystalline form", "setting": "[2]", "value": "most thermodynamically stable"}]}
